Laboratory results from US12404260B2, “Pyridine rings containing derivatives as MALT1 inhibitors” (Janssen Pharmaceutica NV, priority 2019, dated 2025).

Assays:
[1] = molecular target: T1, full-length MALT1 protein (Strep-MALT1(1-824)-His) (Homo sapiens, UniProt Q9UDY8); test: MALT1 Biochemical Protease Assay; conditions: 10 nM FL MALT1, 200 μM Ac-LRSR-AMC, 50 min pre-incubation, 4 h at RT; read-out: MALT1_Biochemical activity (Ac-LRSR-amc) IC50
T1 construct: full-length MALT1 protein (Strep-MALT1(1-824)-His) purified from baculovirus-infected insect cells; Strep (N); His (C); made in house; host or cells: baculovirus-infected insect cells
T1 sequence (Q9UDY8 1-824): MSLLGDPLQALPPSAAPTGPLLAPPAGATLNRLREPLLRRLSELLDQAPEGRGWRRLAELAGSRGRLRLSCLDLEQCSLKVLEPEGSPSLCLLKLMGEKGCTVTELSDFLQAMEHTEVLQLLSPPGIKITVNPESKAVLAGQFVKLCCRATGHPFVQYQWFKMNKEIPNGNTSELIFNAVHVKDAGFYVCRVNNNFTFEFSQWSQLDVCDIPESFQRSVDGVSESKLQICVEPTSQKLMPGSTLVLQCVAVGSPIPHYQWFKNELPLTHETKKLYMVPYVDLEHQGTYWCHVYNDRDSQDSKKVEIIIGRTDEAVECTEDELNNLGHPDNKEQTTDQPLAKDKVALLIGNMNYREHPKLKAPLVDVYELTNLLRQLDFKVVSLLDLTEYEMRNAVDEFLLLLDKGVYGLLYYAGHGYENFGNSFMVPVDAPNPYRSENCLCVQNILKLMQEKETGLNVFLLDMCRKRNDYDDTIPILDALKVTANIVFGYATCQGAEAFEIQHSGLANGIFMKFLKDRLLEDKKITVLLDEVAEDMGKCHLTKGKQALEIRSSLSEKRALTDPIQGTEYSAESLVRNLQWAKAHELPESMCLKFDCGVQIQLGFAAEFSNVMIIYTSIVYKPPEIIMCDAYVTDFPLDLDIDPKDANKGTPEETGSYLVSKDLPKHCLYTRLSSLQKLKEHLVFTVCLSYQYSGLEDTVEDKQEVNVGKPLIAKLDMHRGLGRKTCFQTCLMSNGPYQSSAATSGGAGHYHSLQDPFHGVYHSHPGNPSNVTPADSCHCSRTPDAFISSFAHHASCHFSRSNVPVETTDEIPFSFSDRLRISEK
Protocol: MALT1 protease activity was assessed in an in vitro assay using a tetrapeptide as substrate and full-length MALT1 protein (Strep-MALT1(1-824)-His) purified from baculovirus-infected insect cells. The tetrapeptide LRSR is coupled to AMC (7-amino-4-methylcoumarin) and provides a quenched, fluorescent substrate for the MALT1 protease (SM Biochemicals). Cleavage of AMC from the Arginine residue results in an increase in coumarin fluorescence measured at 460 nm (excitation 355 nm). The final assay buffer consisted of 10 nM FL MALT1 protein, 200 μM Ac-LRSR-AMC, 50 mM Tris pH 7.5, 0.6 M Citrate, 1 mM DTT, 1 mM EDTA, 0.05% BSA and 1.5% DMSO. Test compounds were spotted at 50 nL in 100% DMSO per well of a black 384-Proxiplate (Perkin Elmer). Test compound concentrations ranged from 30 μM to 0.5 nM using 11 dilution steps (1:3). Background signal was measured from control wells containing assay buffer without enzyme which functions as low control (LC). High control (HC) values were generated using the reaction with enzyme but no compound treatment. Compounds were pre-incubated with MALT1 enzyme for 50 minutes at RT. Substrate was added subsequently and fluorescence was measured in Labsystems fluoroskan at excitation 355 nm and emission 460 nm to determine time 0. The reaction was subsequently incubated for 4 h at RT and fluorescence was measured. For IC50 calculations, timepoint 0 was subtracted from the 4 h timepoint to correct for any potential autofluorescence of the compounds. The enzyme reaction was linear during the 4 h incubation period. Characterization of the substrate Ac-LRSR-AMC determined the Michaelis constant KM at 200 μM.
IC50 values were calculated using the following formula (Z prime should be >0.5): […]
A best-fit curve was fitted by a minimum sum of squares method to the plot of % Controlmin vs. compound concentration. From this an IC50 value (inhibitory concentration causing 50% inhibition) can be obtained. An estimate of the slope of the plot in terms of the Hill coefficient was also obtained.
Used in “Lexis Dose Response Curve Fitting” Version 1.0.

[2] = tested on: secretion of IL10 by OCI-LY3 ABC-DLBCL cells; test: Human IL10 Mesoscale assay (OCI-LY3); type: cell-based; conditions: 24 h incubation, IL10 in supernatant
Protocol: (§1) NFKB signaling regulates the secretion of multiple cytokines, including IL6 and IL10. Secretion of the cytokines IL6 and IL10 by OCI-LY3 ABC-DLBCL cells was measured using a mesoscale assay. Inhibition of NFKB signaling by MALT1 inhibitors results in a decrease of IL6/10 secretion.
(§2) OCI-LY3 cells were propagated in RPMI-1640 (Sigma Aldrich) supplemented with 10% fetal bovine serum (HyClone), 1 mM sodium pyruvate (Invitrogen), 2 mM L-glutamine (Sigma Aldrich) and 1% PenStrep (Sigma Aldrich). Cell passage number should not exceed 30. Cells should be kept between 0.5-2.5 million cells per mL during culturing and cells should be supplemented every 2-3 days with fresh 50 μM beta-mercaptoethanol. No beta-mercaptoethanol was used during the mesoscale assay.
(§3) For the Mesoscale assay, 100,000 OCI-LY3 cells were seeded per well into black-colored 96-well plates with clear bottom (Corning #3904) and test compounds were added in 9 dilution steps (1:2) ranging from 15 μM to 58.6 nM (final DMSO concentration 0.3%). DMSO control wells were used to determine the maximum signal (High Control (HC)). Treatment with the BTK inhibitor RN486 in a dose range from 30 nM to […] (9 dilutions of 1:2) served as a positive control for NFKB pathway inhibition and was used to determine the maximum inhibition (Low Control (LC)). Compounds and cells were incubated for 24 h at 37° C. and 5% CO2 (assay volume is 150 μL). After 24 h of incubation 50 μL of the supernatant was transferred to a MSD plate (V-Plex Proinflammation Panel 1 (human) kit, Mesoscale (MSD)) and incubated for 2 h with vigorous shaking (600 rpm) at room temperature. Following incubation, plates were washed 3× with PBS+0.05% Tween-20 and 25 μL detection antibody solution (IL6 & IL10 antibodies in diluent 3 (MSD)) was added per well followed by 2 h of incubation with vigorous shaking (600 rpm) at room temperature. After 3× washes with PBS+0.05% Tween-20, plates were incubated with 150 μL 2× Read Buffer T and read on SECTOR imager.

[3] = tested on: secretion of IL6 by OCI-LY3 ABC-DLBCL cells; test: Human IL6 Mesoscale assay (OCI-LY3); type: cell-based; conditions: 24 h incubation, IL6 in supernatant
Protocol: as §1, §2, §3

Row | Compound | IC50 [1] | IC50 ([2]; Homo sapiens) | IC50 ([3]; Homo sapiens) | IC50 [2] | IC50 [3]
1 | [2H]C([2H])([2H])Oc1cncc(NC(=O)Nc2cnc(-n3nccn3)c(C(F)(F)F)c2)c1[C@H](C)OC (single isomer, unassigned) [Co. 129] | 1380 nM | 1020 nM | 2290 nM |  | 
2 | [2H]C([2H])([2H])Oc1cncc(NC(=O)Nc2cnc(-n3nccn3)c(C(F)(F)F)c2)c1[C@@H](C)OC (single isomer, unassigned) [Co. 130] | 50 nM | ~110 nM | 190 nM |  | 
3 | [2H]C([2H])([2H])O[C@@H](C)c1c(NC(=O)Nc2cnc(-n3nccn3)c(C(F)(F)F)c2)cncc1OC (single isomer, unassigned) [Co. 131] | 1020 nM | ~890 nM | 2340 nM |  | 
4 | [2H]C([2H])([2H])O[C@H](C)c1c(NC(=O)Nc2cnc(-n3nccn3)c(C(F)(F)F)c2)cncc1OC (single isomer, unassigned) [Co. 132] | 50 nM | 60 nM | 150 nM |  | 
5 | CO[C@@H](C)c1c(NC(=O)Nc2cnc(-n3nccn3)c(C(F)(F)F)c2)cnc(C(F)F)c1Cl (single isomer, unassigned) [Co. 133] | 550 nM | 310 nM | 930 nM |  | 
6 | CO[C@H](C)c1c(NC(=O)Nc2cnc(-n3nccn3)c(C(F)(F)F)c2)cnc(C(F)F)c1Cl (single isomer, unassigned) [Co. 134] | 40 nM | 80 nM | 80 nM |  | 
7 | CO[C@H](C)c1c(NC(=O)Nc2cnc(OC(F)F)c(Cl)c2)cnc(N)c1Cl (single isomer, unassigned) [Co. 136] | 60 nM | 30 nM | 60 nM |  | 
8 | COc1cncc(NC(=O)Nc2cc(C(F)(F)F)c(-n3nccn3)nc2OC)c1[C@H](C)OC (single isomer, unassigned) [Co. 137] | 40 nM | 80 nM | 80 nM |  | 
9 | CO[C@H](C)c1c(NC(=O)Nc2cnc(-n3nccn3)c(C(F)(F)F)c2)cnc(N)c1Br (single isomer, unassigned) [Co. 138] | 290 nM | 380 nM | 600 nM |  | 
10 | CO[C@@H](C)c1c(NC(=O)Nc2cnc(-n3nccn3)c(C(F)(F)F)c2)cnc(N)c1Br (single isomer, unassigned) [Co. 139] | 20 nM | 70 nM | ~100 nM |  | 
11 | COc1cncc(NC(=O)Nc2cc(Cl)c(-n3nccn3)nc2OC)c1[C@@H](C)OC (single isomer, unassigned) [Co. 140] | ~620 nM | 470 nM | 540 nM |  | 
12 | COc1cncc(NC(=O)Nc2cc(Cl)c(-n3nccn3)nc2OC)c1[C@H](C)OC (single isomer, unassigned) [Co. 141] | 60 nM | 140 nM | 130 nM |  | 
13 | CO[C@H](c1c(NC(=O)Nc2cnc(-n3nccn3)c(C(F)(F)F)c2)cnc(C)c1Cl)C1CC1 (single isomer, unassigned) [Co. 142] | 790 nM | 780 nM | 1200 nM |  | 
14 | CO[C@@H](c1c(NC(=O)Nc2cnc(-n3nccn3)c(C(F)(F)F)c2)cnc(C)c1Cl)C1CC1 (single isomer, unassigned) [Co. 143] | 50 nM | 50 nM | 80 nM |  | 
15 | CO[C@H](C)c1c(NC(=O)Nc2cnc(-n3nccn3)c(C(F)(F)F)c2)cnc(C(F)F)c1Br (single isomer, unassigned) [Co. 144] | 40 nM | ~45 nM | 60 nM |  | 
16 | CO[C@H](C)c1c(NC(=O)Nc2ccnc(C(F)(F)F)c2)cnc(C)c1C#N (single isomer, unassigned) [Co. 145] | 290 nM | 170 nM | 260 nM |  | 
17 | COc1cncc(NC(=O)Nc2cc(C(F)(F)F)c(-n3nccn3)nc2OC)c1[C@@H](C)OC (single isomer, unassigned) [Co. 146] | 270 nM | 160 nM | 320 nM |  | 
18 | CO[C@@H](C)c1c(NC(=O)Nc2cnc(-n3nccn3)c(C(F)(F)F)c2)cnc(C(F)F)c1Br (single isomer, unassigned) [Co. 147] | 560 nM | 660 nM | 850 nM |  | 
19 | CC[C@@H](OC)c1c(NC(=O)Nc2cnc(-n3nccn3)c(C(F)(F)F)c2)cnc(C)c1C#N (single isomer, unassigned) [Co. 148] | 30 nM | ~60 nM | ~60 nM |  | 
20 | CO[C@@H](C)c1c(NC(=O)Nc2ccnc(C(F)(F)F)c2)cnc(C)c1C#N (single isomer, unassigned) [Co. 149] | 2880 nM | 1320 nM | 1910 nM |  | 
21 | CC[C@H](OC)c1c(NC(=O)Nc2cnc(-n3nccn3)c(C(F)(F)F)c2)cnc(C)c1C#N (single isomer, unassigned) [Co. 150] | 100 nM | 140 nM | 150 nM |  | 
22 | CNc1ncc(NC(=O)Nc2cnc(-n3nccn3)c(Cl)c2)c([C@H](C)OC)c1Br (single isomer, unassigned) [Co. 153] | 25000 nM | 8710 nM | 11800 nM |  | 
23 | CNc1ncc(NC(=O)Nc2cnc(-n3nccn3)c(Cl)c2)c([C@@H](C)OC)c1Br (single isomer, unassigned) [Co. 154] | 2690 nM | 710 nM | 1100 nM |  | 
24 | CO[C@H](C)c1c(NC(=O)Nc2cnc(-n3nccn3)c(Cl)c2)cncc1OC(C)C [Co. 9] | 170 nM |  |  | 170 nM | 190 nM
25 | COC(C)c1c(Cl)cncc1NC(=O)Nc1cnc(-n2nccn2)c(Cl)c1 (stereo not drawn) [Co. 22] | 290 nM | 120 nM | 160 nM |  | 
26 | CO[C@H](C)c1c(Cl)cncc1NC(=O)Nc1cnc(-n2nccn2)c(Cl)c1 [Co. 23] | 110 nM | 120 nM | 180 nM |  | 
